Consider 11 compounds from patent US12209102B2, “Heterocyclic compounds and uses thereof” (Kumquat Biosciences Inc., priority 2022, dated 2025).

The target in experiment [1] is T1, K-Ras WT (Homo sapiens, UniProt P01116).
T1 construct: made in house; host or cells: E. coli BL21 (DE3)
Nature of the experiment: HTRF resonance energy transfer assay, K-Ras WT / SOS1 interaction. Format: biochemical. Conditions: HTRF assay of Example 5; read-out: IC50 against K-Ras WT. The gist of the method: (§1)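 GST-tagged K-Ras (WT or mutant) bound to anti-GST-Eu donor was mixed with His-hSOS1 bound to anti-6His-XL665 acceptor in ~5 mM HEPES pH 7.4, 150 mM NaCl, 1 mM DTT, 0.05% BSA, 0.0025% Igepal. HTRF (ex 337, em 620/665 nm) was read after ~10 min or longer. IC50 came from the 665/620 ratio over duplicates from 10 μM to 0.01 μM.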
In general terms: Time-resolved FRET reads energy transfer from a long-lived donor to a nearby acceptor.

Experiment [2] has as its target T2, K-Ras G12D (Homo sapiens, UniProt P01116, G12D).
T2 construct: made in house; host or cells: E. coli BL21 (DE3)
The experiment can be described thus: HTRF resonance energy transfer assay, K-Ras G12D / SOS1 interaction. Format: biochemical. Conditions: HTRF assay of Example 5; read-out: IC50 against K-Ras G12D. The gist of the method:
as §1

Experiment [3] deals with T3, K-Ras G12S (Homo sapiens, UniProt P01116, G12S).
T3 construct: made in house; host or cells: E. coli BL21 (DE3)
T3 sequence (P01116 1-188 isoform P01116-2 G12S): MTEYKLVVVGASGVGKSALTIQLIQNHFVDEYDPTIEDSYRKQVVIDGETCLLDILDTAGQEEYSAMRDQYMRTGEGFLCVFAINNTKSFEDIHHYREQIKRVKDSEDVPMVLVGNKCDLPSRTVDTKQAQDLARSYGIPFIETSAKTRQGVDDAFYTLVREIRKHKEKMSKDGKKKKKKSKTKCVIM
The experiment can be described thus: HTRF resonance energy transfer assay, K-Ras G12S / SOS1 interaction. Format: biochemical. Conditions: HTRF assay of Example 5; read-out: IC50 against K-Ras G12S. The gist of the method: as §1

Experiment [4] relates to SW620 cells. Nature of the experiment: Ras cellular assay, growth of cells with K-Ras G12V mutation (CellTiter-Glo). Format: cell-based. Conditions: Homo sapiens, SW-620; cell growth, Example 9, G12V mutation; read-out: IC50 against SW620 cells. The gist of the method: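 SW620 (K-Ras G12V) cells, e.g. 800/well in RPMI-1640 with 10% heat-inactivated FBS on standard or ultra-low attachment plates, were dosed the day after plating with e.g. a 10-point 3-fold series. Viability by CellTiter-Glo luminescence about 6 days later; IC50 from four-parameter fit.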

The test system of experiment [5] is A549 cells. The experiment can be described thus: Ras cellular assay, growth of cells with K-Ras G12S mutation (CellTiter-Glo). Format: cell-based. Conditions: Homo sapiens, cell growth, Example 9, G12S mutation, read-out: IC50 against A549 cells. The gist of the method: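 A549 cells (K-Ras G12S) in RPMI-1640 with 10% heat-inactivated FBS, seeded e.g. 800 per well in standard or ultra-low-attachment 384-well plates, treated next day with a dilution series (e.g. 10-point, 3-fold). Viability by CellTiter-Glo luminescence about 6 days later; IC50 from four-parameter fit.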
Background: Cellular ATP, detected with luciferase, serves as a proxy for viable cell number.

For experiment [6], the target named is T4, K-Ras G12V (Homo sapiens, UniProt P01116, G12V).
T4 construct: made in house; host or cells: E. coli BL21 (DE3)
T4 sequence (P01116 1-188 isoform P01116-2 G12V): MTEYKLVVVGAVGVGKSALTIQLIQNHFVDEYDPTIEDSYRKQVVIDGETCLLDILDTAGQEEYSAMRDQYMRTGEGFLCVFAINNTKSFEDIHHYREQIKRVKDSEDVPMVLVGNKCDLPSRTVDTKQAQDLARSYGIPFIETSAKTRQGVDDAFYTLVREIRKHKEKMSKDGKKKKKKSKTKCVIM
The experiment can be described thus: HTRF resonance energy transfer assay, K-Ras G12V / SOS1 interaction. Format: biochemical. Conditions: HTRF assay of Example 5; read-out: IC50 against K-Ras G12V. The method, boiled down: as §1

Experiment [7] has as its system GP2D cells. The experiment can be described thus: Ras cellular assay, growth of cells with K-Ras G12D mutation (CellTiter-Glo). Format: cell-based. Conditions: cell growth, Example 9, G12D mutation, read-out: IC50 against GP2D cells.

T2 sequence (P01116 1-188 isoform P01116-2 G12D): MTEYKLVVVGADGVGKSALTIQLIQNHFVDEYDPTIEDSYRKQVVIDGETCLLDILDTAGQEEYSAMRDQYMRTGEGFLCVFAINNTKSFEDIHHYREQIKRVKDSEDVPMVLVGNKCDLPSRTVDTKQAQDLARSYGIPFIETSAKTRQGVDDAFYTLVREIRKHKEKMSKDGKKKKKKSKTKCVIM
T1 sequence (P01116 1-188 isoform P01116-2): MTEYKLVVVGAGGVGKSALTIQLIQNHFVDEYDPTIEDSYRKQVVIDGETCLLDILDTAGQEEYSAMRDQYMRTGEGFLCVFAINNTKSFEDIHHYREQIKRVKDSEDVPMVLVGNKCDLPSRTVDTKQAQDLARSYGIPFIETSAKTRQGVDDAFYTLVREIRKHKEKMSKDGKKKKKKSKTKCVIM

Broadly, the IC50 is the concentration needed to halve the response being measured. Regarding `CN(CCN1CCOc2c(Cl)c(-c3ccc(F)c4sc(N)c(C#N)c34)c(F)c3nc(OC[C@@]45CCCN4C[C@H](F)C5)nc1c23)C(=O)[C@@H]1N[C@H]1C1CC1` [Compound 613, (2R,3S)-N-(2-(9-(2-amino-3-cyano-7-fluorobenzo[b]thiophen-4-yl)-8-chloro-10-fluoro-2-(((2R,7aS)-2-fluorotetrahydro-1H-pyrrolizin-7a(5H)-yl)methoxy)-5,6-dihydro-4H-[1,4]oxazepino[5,6,7-de]quinazolin-4-yl)ethyl)-3-cyclopropyl-N-methylaziridine-2-carboxamide], the IC50 was < 100 nM in experiment [1]; < 100 nM in experiment [2]; < 100 nM in experiment [3]; < 5000 nM in experiment [4]; < 5000 nM in experiment [5]; < 100 nM in experiment [6]. Besides, the IC50 in experiment [7] was < 500 nM.
In the case of `N#Cc1c(N)sc2c(F)ccc(-c3c(Cl)c4c5c(nc(OC[C@@]67CCCN6C[C@H](F)C7)nc5c3F)N([C@@H]3CCOC3)CCO4)c12` [Compound 617, 2-amino-4-(8-chloro-10-fluoro-2-(((2R,7aS)-2-fluorotetrahydro-1H-pyrrolizin-7a(5H)-yl)methoxy)-4-((R)-tetrahydrofuran-3-yl)-5,6-dihydro-4H-[1,4]oxazepino[5,6,7-de]quinazolin-9-yl)-7-fluorobenzo[b]thiophene-3-carbonitrile], the IC50 was < 100 nM in experiment [1]; < 100 nM in experiment [2]; < 100 nM in experiment [3]; < 5000 nM in experiment [4]; < 5000 nM in experiment [5]; < 100 nM in experiment [6]. The IC50 in experiment [7] is < 500 nM.
Turning to `C[C@H](Oc1nc2c3c(c(Cl)c(-c4ccc(F)c5sc(N)c(C#N)c45)c(F)c3n1)OCCN2[C@@H]1CCN(C=O)C1)[C@@H]1CCCN1C` [Compound 621, 2-amino-4-(8-chloro-10-fluoro-4-((R)-1-formylpyrrolidin-3-yl)-2-((S)-1-((S)-1-methylpyrrolidin-2-yl)ethoxy)-5,6-dihydro-4H-[1,4]oxazepino[5,6,7-de]quinazolin-9-yl)-7-fluorobenzo[b]thiophene-3-carbonitrile], the IC50 was < 100 nM in experiment [1]; < 100 nM in experiment [2]; < 100 nM in experiment [3]; < 5000 nM in experiment [4]; < 5000 nM in experiment [5]; < 100 nM in experiment [6]. In experiment [7], the IC50 was < 500 nM.
In the case of `CN1CCC(N2CCOc3c(Cl)c(-c4ccc(F)c5sc(N)c(C#N)c45)c(F)c4nc(OC[C@@]56CCCN5C[C@H](F)C6)nc2c34)C1=O` (stereo partly drawn) [Compound 624, 2-amino-4-(8-chloro-10-fluoro-2-(((2R,7aS)-2-fluorotetrahydro-1H-pyrrolizin-7a(5H)-yl)methoxy)-4-(1-methyl-2-oxopyrrolidin-3-yl)-5,6-dihydro-4H-[1,4]oxazepino[5,6,7-de]quinazolin-9-yl)-7-fluorobenzo[b]thiophene-3-carbonitrile], the IC50 in experiment [1] is < 100 nM; in experiment [2], < 100 nM; in experiment [3], < 100 nM; in experiment [4], < 5000 nM; in experiment [5], < 5000 nM; in experiment [6] it was < 100 nM. In addition, the IC50 in experiment [7] was < 500 nM.
Regarding `N#Cc1c(N)sc2c(F)ccc(-c3c(Cl)c4c5c(nc(OC[C@@]67CCCN6C[C@H](F)C7)nc5c3F)N(C3CCOC3)CC(CF)O4)c12` (stereo partly drawn) [Compound 628, 2-amino-4-(8-chloro-10-fluoro-6-(fluoromethyl)-2-(((2R,7aS)-2-fluorotetrahydro-1H-pyrrolizin-7a(5H)-yl)methoxy)-4-(tetrahydrofuran-3-yl)-5,6-dihydro-4H-[1,4]oxazepino[5,6,7-de]quinazolin-9-yl)-7-fluorobenzo[b]thiophene-3-carbonitrile], the IC50 is < 100 nM in experiment [1]; < 100 nM in experiment [2]; < 100 nM in experiment [3]; < 5000 nM in experiment [4]; < 5000 nM in experiment [5]; < 100 nM in experiment [6]. The IC50 in experiment [7] was < 500 nM.
`CNC(=O)C1CCC(N2CCOc3c(Cl)c(-c4ccc(F)c5sc(N)c(C#N)c45)c(F)c4nc(OC[C@@]56CCCN5C[C@H](F)C6)nc2c34)C1` (stereo partly drawn) [Compound 633, 3-(9-(2-amino-3-cyano-7-fluorobenzo[b]thiophen-4-yl)-8-chloro-10-fluoro-2-(((2R,7aS)-2-fluorotetrahydro-1H-pyrrolizin-7a(5H)-yl)methoxy)-5,6-dihydro-4H-[1,4]oxazepino[5,6,7-de]quinazolin-4-yl)-N-methylcyclopentane-1-carboxamide]: the IC50 in experiment [1] was < 100 nM; in experiment [2], < 100 nM; in experiment [3], < 100 nM; in experiment [4] it was < 5000 nM; in experiment [5], < 5000 nM; in experiment [6], < 100 nM. Moreover, the IC50 in experiment [7] was < 500 nM.
With `Cn1ncc(C#N)c1CN1CCOc2c(Cl)c(-c3ccc(F)c4sc(N)c(C#N)c34)c(F)c3nc(OC[C@@]45CCCN4C[C@H](F)C5)nc1c23` [Compound 641, 5-((9-(2-amino-3-cyano-7-fluorobenzo[b]thiophen-4-yl)-8-chloro-10-fluoro-2-(((2R,7aS)-2-fluorotetrahydro-1H-pyrrolizin-7a(5H)-yl)methoxy)-5,6-dihydro-4H-[1,4]oxazepino[5,6,7-de]quinazolin-4-yl)methyl)-1-methyl-1H-pyrazole-4-carbonitrile], the IC50 in experiment [1] was < 100 nM; in experiment [2], < 100 nM; in experiment [3] it was < 100 nM; in experiment [4], < 5000 nM; in experiment [5] it was < 5000 nM; in experiment [6] it was < 100 nM. In addition, in experiment [7], the IC50 was < 500 nM.
For the compound `N#CCCN1CCOc2c(Cl)c(-c3ccc(F)c4sc(N)c(C#N)c34)c(F)c3nc(OC[C@@]45CCCN4C[C@H](F)C5)nc1c23` [Compound 648, 2-amino-4-(8-chloro-4-(2-cyanoethyl)-10-fluoro-2-(((2R,7aS)-2-fluorotetrahydro-1H-pyrrolizin-7a(5H)-yl)methoxy)-5,6-dihydro-4H-[1,4]oxazepino[5,6,7-de]quinazolin-9-yl)-7-fluorobenzo[b]thiophene-3-carbonitrile], the IC50 in experiment [1] was < 100 nM; in experiment [2], < 100 nM; in experiment [3], < 100 nM; in experiment [4] it was < 5000 nM; in experiment [5] it was < 5000 nM; in experiment [6] it was < 100 nM. Besides, the IC50 in experiment [7] is < 500 nM.
As for `N#Cc1c(N)sc2c(F)ccc(-c3c(Cl)c4c5c(nc(OC[C@@]67CCCN6C[C@H](F)C7)nc5c3F)N(C3CCN(C(=O)C(F)F)C3)CCO4)c12` (stereo partly drawn) [Compound 649, 2-amino-4-(8-chloro-4-(1-(2,2-difluoroacetyl)pyrrolidin-3-yl)-10-fluoro-2-(((2R,7aS)-2-fluorotetrahydro-1H-pyrrolizin-7a(5H)-yl)methoxy)-5,6-dihydro-4H-[1,4]oxazepino[5,6,7-de]quinazolin-9-yl)-7-fluorobenzo[b]thiophene-3-carbonitrile], the IC50 in experiment [1] was < 100 nM; in experiment [2], < 100 nM; in experiment [3], < 100 nM; in experiment [4], < 5000 nM; in experiment [5], < 5000 nM; in experiment [6], < 100 nM. The IC50 in experiment [7] was < 500 nM.
Turning to `N#Cc1c(N)sc2c(F)ccc(-c3c(Cl)c4c5c(nc(OC[C@@]67CCCN6C[C@H](F)C7)nc5c3F)N(C3C5CC3N(C=O)C5)CCO4)c12` (stereo partly drawn) [Compound 654, 2-amino-4-(8-chloro-10-fluoro-2-(((2R,7aS)-2-fluorotetrahydro-1H-pyrrolizin-7a(5H)-yl)methoxy)-4-(2-formyl-2-azabicyclo[2.1.1]hexan-5-yl)-5,6-dihydro-4H-[1,4]oxazepino[5,6,7-de]quinazolin-9-yl)-7-fluorobenzo[b]thiophene-3-carbonitrile], the IC50 was < 100 nM in experiment [1]; < 100 nM in experiment [2]; < 100 nM in experiment [3]; < 5000 nM in experiment [4]; < 5000 nM in experiment [5]; < 100 nM in experiment [6]. Besides, in experiment [7], the IC50 was < 500 nM.
Regarding `C#Cc1c(F)ccc2cc(O)cc(-c3nc4c5c(nc(OC[C@@]67CCCN6C[C@H](F)C7)nc5c3F)N(C3CCCOC3)CCO4)c12` (stereo partly drawn) [Compound 661, 5-ethynyl-6-fluoro-4-(4-fluoro-2-(((2R,7aS)-2-fluorotetrahydro-1H-pyrrolizin-7a(5H)-yl)methoxy)-10-(tetrahydro-2H-pyran-3-yl)-9,10-dihydro-8H-7-oxa-1,3,6,10-tetraazacyclohepta[de]naphthalen-5-yl)naphthalen-2-ol], the IC50 in experiment [1] is < 100 nM; in experiment [2], < 100 nM; in experiment [3] it was < 100 nM; in experiment [4], < 5000 nM; in experiment [5] it was < 5000 nM; in experiment [6], < 100 nM. For the same compound, the IC50 in experiment [7] was < 500 nM.
